Results taken from PubChem BioAssay AID743340 (Broad Institute, 2014).
Results filed as inconclusive are left out. The source made the active and inactive calls.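 How the source made its calls: active means compounds whose fitted AC50 for signal loss is at most twice the top valid dose tested; inconclusive means flat curve with 30 to 70% inhibition, or poor fit; inactive means the rest.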

The compounds below were run against Leucyl-cystinyl aminopeptidase (Mus musculus) (UniProt Q8C129) (assay: IRAP inhibitors, dose response, selectivity assay for ERAP1 modulator project, biochemical, Leu-AMC fluorescence, cherry-picked samples, set 2 (AID 743340)). Settings: purified IRAP, Leu-AMC cleavage fluorescence, 1 h.
Sequence of Leucyl-cystinyl aminopeptidase (Mus musculus) (Q8C129 whole entry, looked up): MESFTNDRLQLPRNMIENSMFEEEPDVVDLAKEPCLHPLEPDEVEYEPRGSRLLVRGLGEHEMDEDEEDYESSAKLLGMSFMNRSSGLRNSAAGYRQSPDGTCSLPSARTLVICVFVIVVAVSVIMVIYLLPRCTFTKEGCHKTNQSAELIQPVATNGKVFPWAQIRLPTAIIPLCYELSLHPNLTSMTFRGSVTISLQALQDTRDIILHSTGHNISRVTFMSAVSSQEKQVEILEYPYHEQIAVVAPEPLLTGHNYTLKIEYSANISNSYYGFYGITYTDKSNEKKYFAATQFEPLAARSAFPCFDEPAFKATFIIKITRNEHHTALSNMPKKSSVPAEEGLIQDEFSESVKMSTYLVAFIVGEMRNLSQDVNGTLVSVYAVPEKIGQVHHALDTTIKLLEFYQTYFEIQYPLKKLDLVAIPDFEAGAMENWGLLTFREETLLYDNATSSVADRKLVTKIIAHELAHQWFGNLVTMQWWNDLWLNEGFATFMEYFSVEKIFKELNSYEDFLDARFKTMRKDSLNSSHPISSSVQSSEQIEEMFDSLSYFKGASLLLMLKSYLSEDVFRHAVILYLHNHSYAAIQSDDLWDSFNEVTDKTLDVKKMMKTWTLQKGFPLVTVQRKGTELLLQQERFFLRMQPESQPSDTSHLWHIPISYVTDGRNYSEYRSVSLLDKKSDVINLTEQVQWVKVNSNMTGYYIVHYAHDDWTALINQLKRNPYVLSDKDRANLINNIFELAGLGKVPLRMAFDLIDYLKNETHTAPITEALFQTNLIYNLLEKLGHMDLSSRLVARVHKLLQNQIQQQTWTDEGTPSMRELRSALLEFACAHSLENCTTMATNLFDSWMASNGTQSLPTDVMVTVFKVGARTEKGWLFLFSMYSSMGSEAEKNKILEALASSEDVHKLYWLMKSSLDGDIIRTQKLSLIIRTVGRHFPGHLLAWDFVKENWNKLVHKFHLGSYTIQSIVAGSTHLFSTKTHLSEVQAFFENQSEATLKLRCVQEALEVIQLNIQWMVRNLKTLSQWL

AC50	Structure (SMILES)
> 20 µM (inactive)	CCCN(C)C[C@@H]1OCCCC[C@@H](C)Oc2ccc(NS(=O)(=O)c3ccc(C)cc3)cc2C(=O)N([C@H](C)CO)C[C@@H]1C

Same assay, conditions: purified IRAP, Leu-AMC cleavage fluorescence, 1 h; at 5.6 µM (top of the series)

activity change, negative = inhibition	Structure (SMILES)
inactive	COc1ccc(S(=O)(=O)N(C)C[C@@H]2Oc3ncccc3C(=O)N([C@H](C)CO)C[C@@H]2C)cc1

Same assay, conditions: purified IRAP, Leu-AMC cleavage fluorescence, 1 h; at 11 µM (top of the series)

activity change, negative = inhibition	Structure (SMILES)
inactive	C[C@@H]1CCCCO[C@@H](CN(C)Cc2ccc(C(=O)O)cc2)[C@H](C)CN([C@@H](C)CO)C(=O)c2cc(NS(=O)(=O)c3ccc(Cl)cc3)ccc2O1
inactive	CCC(=O)N(C)C[C@H]1Oc2ncc(C#Cc3ccncc3)cc2C(=O)N([C@H](C)CO)C[C@H]1C
inactive	COc1ccc(CN(C)C[C@@H]2OCCCC[C@H](C)Oc3ccc(NS(=O)(=O)c4cccs4)cc3C(=O)N([C@@H](C)CO)C[C@@H]2C)cc1
inactive	C[C@H](CO)N1C[C@H](C)[C@H](CN(C)CC2CCCCC2)Oc2c(NC(=O)Nc3ccc(C(F)(F)F)cc3)cccc2C1=O
inactive	CCCN(C)C[C@@H]1OCCCC[C@@H](C)Oc2ccc(NS(=O)(=O)c3ccccc3)cc2C(=O)N([C@H](C)CO)C[C@@H]1C
inactive	Cc1ccc(S(=O)(=O)Nc2ccc3c(c2)C(=O)N([C@@H](C)CO)C[C@H](C)[C@H](CN(C)C)OCCCC[C@@H](C)O3)cc1
inactive	CCCNC(=O)C[C@H]1CC[C@@H]2[C@H](COC[C@H](O)CN2C(=O)Nc2cccc(Cl)c2)O1
inactive	COc1ccc(NC(=O)Nc2cccc3c2O[C@H](CN(C)Cc2ccc(C(=O)O)cc2)[C@H](C)CN([C@H](C)CO)C3=O)cc1
inactive	C[C@@H]1CCCCO[C@@H](CN(C)CC2CC2)[C@@H](C)CN([C@H](C)CO)C(=O)c2cc(NS(=O)(=O)c3cccs3)ccc2O1
inactive	Cc1noc(C)c1NC(=O)Nc1ccc2c(c1)C(=O)N([C@H](C)CO)C[C@@H](C)[C@@H](CN(C)Cc1ccc(C(F)(F)F)cc1)OCCCC[C@@H](C)O2
inactive	C[C@H]1CN([C@@H](C)CO)C(=O)c2cccc(NC(=O)Nc3ccc(F)cc3)c2O[C@@H]1CN(C)C(=O)Nc1ccc2c(c1)OCO2
inactive	C[C@H](CO)N1C[C@H](C)[C@H](CN(C)CC2CCCCC2)Oc2c(NC(=O)Nc3ccc4c(c3)OCO4)cccc2C1=O
inactive	CCC(=O)N(C)C[C@@H]1Oc2ncc(C#Cc3ccncc3)cc2C(=O)N([C@@H](C)CO)C[C@@H]1C
inactive	NC(=NCCc1c[nH]c2ccccc12)NS(=O)(=O)c1cc(F)ccc1F
inactive	C[C@@H]1CN([C@H](C)CO)C(=O)c2cc(NC(=O)Nc3ccc(F)cc3)ccc2O[C@H]1CN(C)Cc1ccc(C(=O)O)cc1
inactive	O=C(C[C@H]1CC[C@@H]2[C@H](COC[C@@H](O)CN2C(=O)Nc2cccc(Cl)c2)O1)N1CCCCC1
inactive	CC(=O)N1CCN(C(=O)C2(NC(=O)Nc3ccc(C)cc3)CCCCC2)CC1
inactive	C[C@@H]1CCCCO[C@@H](CN(C)Cc2ccc3c(c2)OCO3)[C@@H](C)CN([C@H](C)CO)C(=O)c2cc(NS(=O)(=O)c3cccs3)ccc2O1
inactive	COC(=O)[C@H]1[C@H](CO)[C@H]2Cn3c(ccc(-c4ccncc4)c3=O)[C@H]2N1Cc1ccccc1F
inactive	COc1ccc(NC(=O)Nc2ccc3c(c2)C(=O)N([C@H](C)CO)C[C@@H](C)[C@@H](CN(C)Cc2ccc(C(=O)O)cc2)OCCCC[C@@H](C)O3)cc1
